# Experimental data from patent US4294757A, “20-O-Acylmaytansinoids” (Takeda Chemical Industries, Ltd, priority 1979, dated 1981).
# What was measured:
# Tetrahymena pyriformis W = assay: Antiprotozoal activity against Tetrahymena pyriformis W, serial dilution method; assay type: cell-based; details: 28° C., 44 to 48 hours, pH 7.0
# Procedure: Then, with Tetrahymena pyriformis W strain used as the test microorganism and a medium composed of 20 g tryptose peptone (Difco), lg yeast extract, 2 g glucose, 1000 ml distilled water and 10 ml of a 1 M phosphate buffer of pH 7.0 as the assay medium, the microorganism is incubated at 28° C. for 44 to 48 hours, and the growth inhibitory activity of said antibiotic compound is assayed by the serial dilution method.
# [1] = system: Hamigera avellanea IFO 7721; assay: Antifungal activity against Hamigera avellanea IFO 7721, paper disc method; assay type: cell-based; details: IFO7721, paper disc 8 mm diameter, 0.02 ml of a 100 μg/ml solution, pH 7.0, read-out: Antifungal activity, φmm (zone of growth inhibition), Hamigera avellanea IFO 7721
# Procedure: On the other hand, the antifungal activity of the test compound is assayed against Hamigera avellanea IFO 7721 by the paper disc method, employing agar plates [each containing the medium consisting of 3.5 g of disodium phosphate 0.5 g monopotassium phosphate, 5 g yeast extract (Difco), 10 g glucose, 15 g agar, 1000 ml distilled water, and adjusted to pH 7.0]. Thus, on the plates inoculated with the above microorganism, the zones of growth inhibition are determined using paper discs (supplied by Toyo Seisakusho, Japan, thin-type, 8 mm diameter) immersed with 0.02 ml of a 100 μg/ml solution of 20-O-acylmaytansinoid compound (I).
Structure (SMILES),MIC (Tetrahymena pyriformis W) [µg/mL],zone of inhibition at 100 µg/mL [1] [mm]
COC1/C=C/C=C(\C)Cc2cc(OC(C)=O)c(Cl)c(c2)N(C)C(=O)CC(OC(=O)C(C)C)C2(C)OC2C(C)C2CC1(O)NC(=O)O2 (stereo not drawn) [PDM-3 20-acetate],2,31
COC1/C=C/C=C(\C)Cc2cc(OC(=O)c3ccccc3)c(Cl)c(c2)N(C)C(=O)CC(OC(=O)C(C)C)C2(C)OC2C(C)C2CC1(O)NC(=O)O2 (stereo not drawn) [PDM-3 20-benzoate],–,35
CCCC(=O)Oc1cc2cc(c1Cl)N(C)C(=O)CC(OC(=O)C(C)C)C1(C)OC1C(C)C1CC(O)(NC(=O)O1)C(OC)/C=C/C=C(\C)C2 (stereo not drawn) [PDM-3 20-butyrate],–,40
C/C=C/C(=O)Oc1cc2cc(c1Cl)N(C)C(=O)CC(OC(=O)C(C)C)C1(C)OC1C(C)C1CC(O)(NC(=O)O1)C(OC)/C=C/C=C(\C)C2 (stereo not drawn) [PDM-3 20-crotonate],–,35
"COC1/C=C/C=C(\C)Cc2cc(OC(=O)C3CCCCC3)c(Cl)c(c2)N(C)C(=O)CC(OC(=O)C(C)C)C2(C)OC2C(C)C2CC1(O)NC(=O)O2 (stereo not drawn) [PDM-3 20-cyclohexylcarboxylate, PDM-3 20-cyclohexanecarboxylate]",–,22
"COC1/C=C/C=C(\C)Cc2cc(OC(=O)C(C)C)c(Cl)c(c2)N(C)C(=O)CC(OC(=O)C(C)C)C2(C)OC2C(C)C2CC1(O)NC(=O)O2 (stereo not drawn) [PDM-3 20-i-butyrate, PDM-3 20-isobutyrate]",–,40
"COC1/C=C/C=C(\C)Cc2cc(OC(=O)CC(C)C)c(Cl)c(c2)N(C)C(=O)CC(OC(=O)C(C)C)C2(C)OC2C(C)C2CC1(O)NC(=O)O2 (stereo not drawn) [PDM-3 20-i-valerate, PDM-3 20-isovalerate]",2,44
"COC1/C=C/C=C(\C)Cc2cc(OC(=O)c3ccccc3Br)c(Cl)c(c2)N(C)C(=O)CC(OC(=O)C(C)C)C2(C)OC2C(C)C2CC1(O)NC(=O)O2 (stereo not drawn) [PDM-3 20-o-bromobenzoate, PDM-3 20-ortho-bromobenzoate]",–,27
COC1/C=C/C=C(\C)Cc2cc(OC(=O)Cc3ccccc3)c(Cl)c(c2)N(C)C(=O)CC(OC(=O)C(C)C)C2(C)OC2C(C)C2CC1(O)NC(=O)O2 (stereo not drawn) [PDM-3 20-phenylacetate],–,31
COC1/C=C/C=C(\C)Cc2cc(OC(=O)Nc3ccccc3)c(Cl)c(c2)N(C)C(=O)CC(OC(=O)C(C)C)C2(C)OC2C(C)C2CC1(O)NC(=O)O2 (stereo not drawn) [PDM-3 20-phenylcarbamate],≤ 1,16.5
COC1/C=C/C=C(\C)Cc2cc(OC(=O)c3ccccn3)c(Cl)c(c2)N(C)C(=O)CC(OC(=O)C(C)C)C2(C)OC2C(C)C2CC1(O)NC(=O)O2 (stereo not drawn) [PDM-3 20-picolinate],2,21
CCC(=O)Oc1cc2cc(c1Cl)N(C)C(=O)CC(OC(=O)C(C)C)C1(C)OC1C(C)C1CC(O)(NC(=O)O1)C(OC)/C=C/C=C(\C)C2 (stereo not drawn) [PDM-3 20-propionate],2,34
CCCCC(=O)Oc1cc2cc(c1Cl)N(C)C(=O)CC(OC(=O)C(C)C)C1(C)OC1C(C)C1CC(O)(NC(=O)O1)C(OC)/C=C/C=C(\C)C2 (stereo not drawn) [PDM-3 20-valerate],–,44
